What all share (type): cell-based, human
Experiment [1] concerns FM516-SV. In words: Growth of cell line with IFN-β and MEZ, alone and in combination (Coulter Counter cell numbers). As to conditions: 96-h growth, IFN-β 2000 U/ml, MEZ 10 ng/ml, IFN-β + MEZ 2000 U/ml + 10 ng/ml. How it is done: (§1) Cell Lines and Culture Conditions. H0-1 is a melanotic melanoma cell line produced from a metastatic inguinal lymph node lesion from a person and was used between passages 150 and 175 (13,21,22). FM516-SV is a normal human melanocyte culture immortalized by the SV40 T-antigen gene (23). Additional melanoma cell lines established from patients with metastatic melanomas that were evaluated, include LO-1, SH-1, WM239, MeWo, SKMEL-p53 wt (containing a wild-type p53 gene) and SKMEL-p53 mut (containing a mutant p53 gene) (13,21,24). Cultures were grown at 37° C. in a 95% air 5% C02-humidified incubator in Dulbecco's modified Eagle's medium (DMEM) supplemented with 5 or 10% fetal bovine serum (Hyclone, Utah). Cultures were maintained in the logarithmic phase of growth by subculturing (1:5 or 1:10) prior to confluence approximately every 4 to 7 d. For determining steady-state RNA expression, cultures were seeded at 1.5×10^6 cells per 10-cm tissue culture plate, and 24 h later the medium was changed without inducers or with IFN-β (2000 U/ml), MEZ (10 ng/ml) or IFN-β+MEZ (2000 U/ml+10 ng/ml). Total cytoplasmic RNA was isolated at various time points and analyzed for mda-9 and GAPDH expression.

Experiment [2] concerns HO-1. The experiment is described as above. To be noted: for Cell numbers (average of triplicate plates ± S.D.) / percent of control growth: HO-1, 96-h growth, IFN-β 2000 U/ml, MEZ 10 ng/ml, IFN-β + MEZ 2000 U/ml + 10 ng/ml. As to the method: as §1
Experiment [3] relates to LO-1. The experiment is described as above. As to conditions: 96-h growth, IFN-β 2000 U/ml, MEZ 10 ng/ml, IFN-β + MEZ 2000 U/ml + 10 ng/ml. As to the method:
as §1

For experiment [4], the system named is MeWo. Described as above. To be noted: 96-h growth, IFN-β 2000 U/ml, MEZ 10 ng/ml, IFN-β + MEZ 2000 U/ml + 10 ng/ml. How it is done: as §1
The subject of experiment [5] is SH-1. The experiment is described as above. To be noted: 96-h growth, IFN-β 2000 U/ml, MEZ 10 ng/ml, IFN-β + MEZ 2000 U/ml + 10 ng/ml. How it is done: as §1
Experiment [6] deals with SKMEL-p53 mut. Described as above. As to conditions: 96-h growth, IFN-β 2000 U/ml, MEZ 10 ng/ml, IFN-β + MEZ 2000 U/ml + 10 ng/ml. As to the method:
as §1

For experiment [7], the system named is SKMEL-p53 wt. Described as above. To be noted: 96-h growth, IFN-β 2000 U/ml, MEZ 10 ng/ml, IFN-β + MEZ 2000 U/ml + 10 ng/ml. As to the method: as §1
The test system of experiment [8] is WM239. Described as above. To be noted: 96-h growth, IFN-β 2000 U/ml, MEZ 10 ng/ml, IFN-β + MEZ 2000 U/ml + 10 ng/ml. As to the method:
as §1

Experiment [9] has as its system mda-9 expression in H0-1 cells. Kind of experiment: mda-9 RNA expression by Northern blotting, equalized to GAPDH. As to conditions: H0-1 cells grown for 4 days in 10 ng/ml of MEZ. How it is done: FIG. 1. Temporal expression of mda-9 in H0-1 cells exposed to IFN-β+MEZ. RNAs were isolated from untreated and H0-1 cells treated with IFN-β+MEZ (2000 U/ml+10 ng/ml) for 0.25, 0.5, 1, 2, 4, 8, 12 and 24 h. Ten micrograms of total cellular RNA were separated on 1% agarose gel, transferred to nylon membranes, sequentially hybridized with an mda-9 and then a GAPDH probe, and then exposed to autoradiography.
FIG. 4. Effect of interferons on mda-9 expression in H0-1 cells. H0-1 cells were grown for 96 h in the absence or presence of IFN-α (100 and 1000 U/ml), IFN-β (100 and 1000 U/ml) or IFN-γ (100 U/ml) and RNA was analyzed as described in FIG. 1.
FIGS. 9A-9B. Temporal and dose kinetics of IFN-γ enhancement in mda-9 expression in H0-1 human melanoma cells. H0-1 cells were treated for the indicated time (FIG. 9A) and dose (FIG. 9B) of IFN-γ, RNA was then isolated and analyzed by Northern blotting. […] Replicate samples varied by ≦15%.
as §1
RNA Isolation, Northern Blotting and Southern Blotting of Genomic DNAs. Total cellular RNA was isolated by the guanidinium/phenol procedure and Northern blotting was performed as described (30-32). Ten μg of RNA were denatured with glyoxal/dimethyl sulfoxide (DMSO), electrophoresed on 1.0% agarose gels, transferred to nylon membranes and hybridized to a ^32P-labeled mda-9 probe and then after stripping the membranes were hybridized to a ^32P-labeled rat GAPDH probe (33) as described previously (30-32). […] RNA blots were quantitated by densitometric analysis using a Molecular Dynamics densitometer (Sunnyvale, Calif.) (34). […]

Experiment [10] has as its system H0-1 cells. In words: Effect of interferons on growth of H0-1 cells (FIG. 3). To be noted: 4 d treatment with 100 U/ml interferon. How it is done: FIG. 3. […] Results are the average cell number ±S.D. from the mean.
Experiments were performed to determine if a relationship exists between growth suppression and reduced mda-9 expression. To test this connection, the effect of interferon and MEZ treatment on proliferation and mda-9 expression in human melanoma cells was determined.

The source of these data is US7339026B2, “mda-9 protein” (The Trustees of Columbia University In the City of New York, priority 1996, dated 2008).

Consider `C=C(C)[C@@]12O[C@@]3(c4ccccc4)O[C@@H]1[C@@H]1[C@@H]4O[C@]4(CO)[C@@H](O)[C@]4(O)C(=O)C(C)=C[C@H]4[C@@]1(O3)[C@H](C)[C@H]2OC(=O)/C=C/C=C/c1ccccc1` [MEZ, mezerein, reference compound], for which the “Cell numbers (average of triplicate plates ± S.D.)” value (“Cell numbers” below) in experiment [1] was 12.7 ± 1.8; in [2], 16.8 ± 1.0; in [3], 4.7 ± 0.4; in experiment [4], 15.4 ± 1.9; in experiment [5] it was 14.1 ± 0.3; in [6], 21.5 ± 4.3. The results for the “Cell numbers” value in experiment [7] and in experiment [8] were 3.6 ± 0.7 and 19.7 ± 1.2, respectively. The “percent of control growth” value in experiment [1] is recorded as 60%; in [2], 26%; in experiment [3] it was 28%; in [4] it was 46%; in [5] it was 57%; in experiment [6] it was 60%. Also, the “percent of control growth” value is listed as 21% in [7] and 40% in [8]. Moreover, in experiment [2] (H0-1 cells grown for 4 days in 10 ng/ml of MEZ), the growth reduction is approximately 74%. In experiment [9], the mda-9 expression entry is “unaffected”.

B1: IFN-β: Recombinant human IFN-β, with a serine substituted for a cysteine at position 17 of the molecule (protein, UniProt P01574 22-187, looked up, variant C17S)
Interferon beta: MSYNLLGFLQRSSNFQSQKLLWQLNGRLEYCLKDRMNFDIPEEIKQLQQFQKEDAALTIYEMLQNIFAIFRQDSSSTGWNETIVENLLANVYHQINHLKTVLEEKLEKEDFTRGKLMSSLHLKRYYGRILHYLKAKEYSHCAWTIVRVEILRNFYFINRLTGYLRN
For the molecule B1, the “Cell numbers” value in [1] is reported as 7.8 ± 1.0; in experiment [2], 14.0 ± 2.6; in experiment [3] it was 1.3 ± 0.3; in [4] it was 15.6 ± 1.9; in [5], 14.3 ± 1.5; in experiment [6] it was 39.5 ± 7.5. For the same molecule, the “Cell numbers” value in experiment [7] stood at 9.1 ± 0.3; in [8], 9.5 ± 0.9. The “percent of control growth” value in [1] was “(37) %”; in experiment [2], “(22) %”; in experiment [3] it was “(8) %”; in experiment [4], “(46) %”; in [5], “(57) %”; in [6], “(109) %”. Also, the results for the “percent of control growth” value in experiment [7] and in [8] were “(54) %” and “(19) %”, respectively. Also, the “reduction of H0-1 growth” value in experiment [10] is on record as approximately 70%.
